The target in assay [1] is T1, Cholinesterase (Homo sapiens, UniProt P06276). Briefly: Binding affinity to human BuChE (unknown origin) assessed as overall carbamolyation rate at 0.025 to 100 uM incubated for 60 mins.
Assay [2] concerns the target T1, Cholinesterase. Briefly: Binding affinity to human BuChE (unknown origin) assessed as overall carbamolyation rate at 100 to 1000 nM incubated for 60 mins.

Molecules are shown by their SMILES.

T1 sequence (P06276 whole entry): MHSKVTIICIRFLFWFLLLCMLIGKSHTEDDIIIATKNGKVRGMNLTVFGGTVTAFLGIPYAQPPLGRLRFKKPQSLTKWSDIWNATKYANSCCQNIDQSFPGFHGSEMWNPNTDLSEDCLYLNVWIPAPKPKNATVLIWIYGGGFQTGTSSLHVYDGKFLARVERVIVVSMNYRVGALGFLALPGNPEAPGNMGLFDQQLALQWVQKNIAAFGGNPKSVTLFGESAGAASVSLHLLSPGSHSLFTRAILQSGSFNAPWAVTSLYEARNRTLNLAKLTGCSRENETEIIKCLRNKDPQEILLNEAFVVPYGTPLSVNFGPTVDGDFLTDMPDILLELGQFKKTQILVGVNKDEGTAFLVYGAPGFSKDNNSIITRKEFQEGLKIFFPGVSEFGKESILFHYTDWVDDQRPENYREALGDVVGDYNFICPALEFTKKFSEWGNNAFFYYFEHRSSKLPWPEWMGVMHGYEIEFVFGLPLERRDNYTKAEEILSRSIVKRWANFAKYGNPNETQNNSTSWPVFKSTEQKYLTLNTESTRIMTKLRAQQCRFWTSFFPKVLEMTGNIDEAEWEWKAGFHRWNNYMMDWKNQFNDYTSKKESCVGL

For the compound `COc1ccc(C(C)=O)c(OC(=O)N2CCCCC2)c1`, the Ki (as a rule, a measure of affinity in units of concentration, obtained from inhibition or displacement) at Cholinesterase [1] came to 0.31 nM.
Turning to `COc1ccc(C(C)=O)c(OC(=O)N(C)Cc2ccc(F)cc2)c1`, the Ki on Cholinesterase [2] is 2.8 nM.

These data come from BindingDB's records for PubMed 39481228 (Anhui Medical University).
